Source: article PMC11811597, “Phenomics‐Based Discovery of Novel Orthosteric Choline Kinase Inhibitors” (Angewandte Chemie (International Ed. in English), 2025)

Experiments:
[1] = system: MCF7, MDA‐MB‐231, HEK293, HepG2, U2OS and K562 cells; test: 72 h cell viability assay (Cell Titer-Glo); format: cell-based, human; conditions: 0-50 μM
Source text: We compared morphological fingerprints of multiple parameters to assess overall biological similarity (Biol. Sim.) (Figure 1B).
A-366 and UNC0638 were purchased from Tocris. ARIAD and V-11-07-11 were purchased from Wuxi Apptec. UNC0737 and UNC0965 were synthesised as previously described.[1] Hemicholinium-3 and pyruvate kinase/lactic dehydrogenase enzymes were purchased from Sigma Aldrich. Aqueous and organic solvents were MS-grade and acquired by Sigma Aldrich unless stated otherwise.
MDA-MB-231, MCF7 and HEK293 cells were cultured in DMEM (Gibco, #11965092) supplemented with 10% FBS. K562 were cultured in IMDM (Gibco, #12440053) supplemented with 10% FBS. HepG2 were cultured in MEM (Gibco, #11095080) supplemented with 10 % FBS. […]
cultured in McCoy’s 5A (Sigma, M8403) supplemented with 10 % FBS and 1x GlutaMAX (Gibco, #35050061). Cells were maintained at 37 °C in a humidified 5% CO2 atmosphere. Peripheral blood mononuclear cells (PBMC) were isolated from healthy blood donors by density centrifugation.
MDA-MB-231, MCF7 or HEK293 cells (7.5 × 10^4 cells/mL) were each plated into x1 white 384-well polystyrene plate (Greiner Bio-One Ltd). A-366, […] and UNC0737 were directly added to each well of the cell line plates, at final concentrations 0-50 μM and incubated for 72 h at 37 °C/ 5% CO2.
Cell Titer-Glo® reagent was added to each well and total luminescence readings were performed within 15 min using the PHERAstar FSX (BMG Labtech). The cell viability results were normalised to the DMSO control and plotted using the sigmoidal dose-response (variable slope) equation in […]
Chemical Proteomics Drug Pulldown
For lysate generation MCF7 cells were grown until approximately 80% confluency before being pelleted and washed with PBS. […]
MDA-MB-231, […], HepG2, U2OS and K562 cells following treatment with A-366, UNC0638 and UNC0737 after 72 h measured by Cell Titer Glo assay (n=3). […]

[2] = system: primary human cell‐based tissue and disease models; test: BioMAP Diversity PLUS panel; conditions: 12 systems, Pearson's correlation >0.7
Source text: Having confirmed that UNC0638 and UNC0737 are potent bona fide CHKA inhibitors, we next turned our attention to further investigate the role of CHKA in cellular signalling. While CHKA has been studied extensively in the context of malignant disease, there has been a growing acknowledgment of its relevance in immune metabolism.[9, 10] […] We profiled UNC0638 and UNC0737 alongside the orthogonal CHKA inhibitors V‐11‐0711 and ARIAD against the BioMAP Diversity PLUS panel (Figures S7).[24] This set comprises 148 distinct biomarkers across 12 systems, including panels for systemic immune responses. […] The decrease in IgG secretion was accompanied by a reduction in stimulation‐induced B cell maturation into CD27^+IgD^− memory CD19^+ B cells (Figure 4D). […]
consecutive concentrations change in the same direction relative to vehicle controls, are outside of the significance envelope, and have at least one concentration with an effect size > 20% (|log10ratio| > 0.1). Biomarker key activities are described as modulated if these activities increase in some systems, but decrease in others. Cytotoxicity is indicated on the profile plot by a thin black arrow above the x- […]
Cytotoxicity and antiproliferative arrows only require one concentration to meet the indicated threshold for profile annotation. […]

CHKA [3] = target: T1, CHKA (Homo sapiens, UniProt P35790); test: Differential scanning fluorimetry (DSF); format: binding; parameters: host or cells: E. coli BL21(DE3); conditions: 10 µM compound, 2 µM CHKA
T1 sequence (P35790 75-457 limits assumed): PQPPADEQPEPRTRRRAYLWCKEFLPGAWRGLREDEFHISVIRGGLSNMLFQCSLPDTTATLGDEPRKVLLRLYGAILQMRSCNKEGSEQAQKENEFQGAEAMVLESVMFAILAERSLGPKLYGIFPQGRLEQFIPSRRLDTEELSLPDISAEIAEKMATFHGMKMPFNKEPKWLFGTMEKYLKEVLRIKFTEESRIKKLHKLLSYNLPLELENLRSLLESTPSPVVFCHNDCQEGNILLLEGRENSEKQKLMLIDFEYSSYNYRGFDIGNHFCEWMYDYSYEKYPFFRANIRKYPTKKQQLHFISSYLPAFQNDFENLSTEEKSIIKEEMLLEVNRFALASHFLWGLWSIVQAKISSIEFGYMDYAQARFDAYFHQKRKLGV
Description: mM NaCl, 5% glycerol, 500 mM imidazole, 0.5% TCEP, pH 7.5), the eluent was concentrated, and further purified by size exclusion chromatography using a HiLoad 16/600 Superdex S200 column (Cytiva) pre-equilibrated in Buffer C (20 mM HEPES, 150 mM NaCl, pH 7.5). The resulting protein purity was assessed by SDS-PAGE, and protein identity was confirmed by tryptic digest analysis. Protein concentration was determined to be 35.5 mg/mL, and was calculated using a theoretical molar extinction coefficient of 58830 M-1cm-1 as determined by ProtParam.[5] […]
Differential Scanning Fluorimetry (DSF)
DSF buffer (20 mM HEPES, 150 mM NaCl, 0.5 mM TCEP, pH 7.5) containing 5x SYPRO Orange (Thermo Fisher Scientific) and CHKA (2 µM) was incubated with 10 µM compound at 2% DMSO final concentration in a 96-well semi-skirted real time PCR plate. Fluorescence was measured in each well over a 40-80 °C gradient using a Stratagen MX3005p qPCR instrument (Agilent Technologies). […]

CHKA [4] = target: T1, CHKA; test: Isothermal calorimetry (ITC); format: binding; parameters: host or cells: E. coli BL21(DE3)
Description: mM NaCl, 5% glycerol, 500 mM imidazole, 0.5% TCEP, pH 7.5), the eluent was concentrated, and further purified by size exclusion chromatography using a HiLoad 16/600 Superdex S200 column (Cytiva) pre-equilibrated in Buffer C (20 mM HEPES, 150 mM NaCl, pH 7.5). The resulting protein purity was assessed by SDS-PAGE, and protein identity was confirmed by tryptic digest analysis. Protein concentration was determined to be 35.5 mg/mL, and was calculated using a theoretical molar extinction coefficient of 58830 M-1cm-1 as determined by ProtParam.[5]
Isothermal Calorimetry (ITC)
ITC experiments were performed in a buffer containing 20 mM HEPES pH 7.5 and 200 mM NaCl, using an VP-ITC microcalorimeter (MicroCal) at 15 °C. The protein concentration was 200 µM and compounds were tested at 20 µM. The titrations were conducted using an initial injection of 4 μL followed by further 29 injections of 8 μL each. Thermodynamic parameters were calculated using ΔG = ΔH − TΔS = −RT ln KB, where ΔG, ΔH, and ΔS are the changes in free energy, enthalpy, and entropy of binding, respectively. Single binding models were employed to fit the data. […]

Row | Structure (SMILES) | effect on cell viability [1] | clustering of overall BioMAP responses across all biomarkers [2] | thermal stabilisation of CHKA (DSF) (CHKA [3]) | Kd (CHKA [4])
1 | COc1cc2c(cc1OCCCN1CCCC1)N=C(N)C21CCC1 [A‐366] | less efficient in inducing cancer cell death | did not exhibit any overlap | not | 
2 | COc1cc2nc(N3CCCN(C)CC3)nc(NC3CCN(Cc4ccccc4)CC3)c2cc1OC [BIX‐01294] |  |  | exhibited CHKA stabilisation albeit to lesser degree than UNC0737 | 
3 | C[N+]1(C)CCOC(O)(c2ccc(-c3ccc(C4(O)C[N+](C)(C)CCO4)cc3)cc2)C1 (stereo not drawn) [HC3, hemicholinium‐3] |  |  |  | 40.6 nM
4 | COc1cc2c(NC3CCN(C(C)C)CC3)nc(N3CCC(F)(F)CC3)nc2cc1OCCCN1CCCC1 [UNC0642] |  |  | exhibited CHKA stabilisation albeit to lesser degree than UNC0737 | 
